The values that follow come from US8710045B2, “Agents for preventing and treating disorders involving modulation of the ryanodine receptors” (The Trustees of Columbia University in the City of New York, priority 2004, dated 2014).

Several values for one entry are separate records, joined by “and”; a condition that tells them apart may be missing. Equal values may be shown once.

One series addresses T1, PKA-phosphorylated RyR2 (Homo sapiens, UniProt Q92736).
T1 construct: from tissue
Nature of the series: FKBP12.6 rebinding assay: FKBP12.6 binding to PKA-phosphorylated RyR2 in cardiac SR. The following applies: compound 0.5-1000 nM; Michaelis-Menten curve fitting. On the procedure:
Samples are centrifuged at 95,000 g for 10 min and the pellets are washed three times in 0.2 ml imidazole buffer. The final pellets are pooled and resuspended in imidazole buffer (final concentration≈10 μg/μl). […] Samples then are centrifuged at 100,000 g for 10 minutes and pellets washed 3 times with imidizol buffer. […] Immunoblots are developed using an anti-FKBP antibody (1:3,000 dilution). […] The intracellular solution contains (in mM): CsCl, 60; CaCl2, 1; EGTA, 11; MgCl2, 1; K2ATP, 5; HEPES, 10; aspartic acid, 50; pH 7.4 (CsOH). Under these conditions, it is expected that the measured current was carried by Ba^2+ primarily through L-type calcium channels which is referred to as ICa,L. Drugs are applied by a local solution changer and reach the cell membrane within 1 s.
The FKBP12.6 rebinding assay described above is used to determine the amount of FKBP12.6 binding to PKA-phosphorylated RyR2 at various concentrations (0.5-1000 nM) of the compounds shown. EC50 values are calculated using Michaelis-Menten curve fitting.
The EC50 values are calculated using Michaelis-Menten curve fitting.

For another series, the target named is hERG current (Homo sapiens, UniProt Q12809). The series is described as follows: hERG current, PatchXpress 7000A automatic parallel patch clamp in hERG-transfected HEK 293 cells (Example 6). The following applies: single cell. How it is done:
(§1) HEK293 cells were transfected with a plasmid containing the hERG cDNA and a neomycin resistance gene. Stable transfectants were selected by culturing the cells in the presence of G418. The selection pressure was maintained by continued culture in the presence of G418. […] Cells for use in electrophysiology were cultured in 35 mm dishes.
(§2) Onset and steady state block of hERG current was measured using a pulse pattern with fixed amplitudes (conditioning prepulse: +20 mV for 2 seconds; test pulse: −50 mV for 2 seconds) repeated at 10 second intervals, from a holding potential of −80 mV. Peak tail current was measured during the 2 second step to −50 mV. A steady state was maintained for at least 30 seconds before applying the test compound or the positive control. Peak tail current was monitored until a new steady state was achieved. Test compound concentrations were applied cumulatively in ascending order without washout between applications.
(§3) Data acquisition and analysis was performed using the suite of pCLAMP (Vre. 8.2) programs (Axon Instruments, Union City, Calif.). Steady state was defined by the limiting constant rate of change with time (linear time dependence). The steady state before and after application of the test or control compounds was used to calculate the percentage of current inhibited at each concentration. […] Nonlinear squares fits were solved with the Solver add-in for Excel 2000 (Microsoft, Redmond, Wash.).
(§4) Multiple compounds of the invention were tested for their effects on hERG currents. The compounds tested were: ARM036-Na, ARM047, ARM048, ARM050, ARM057, ARM064, ARM074, ARM075, ARM076, ARM077, ARM101, ARM102, ARM103, ARM104, ARM106, ARM107 and ARM26. […] Electrophysiological recordings were made using the PatchXpress 7000 A (Molecular Devices) automatic parallel patch clamp system. […] The duration of exposure to each test concentration was 5 minutes.

A further series concerns the target hERG (Homo sapiens, UniProt Q12809). The series is described as above. To be noted: human, HEK 293 cells stably transfected with hERG cDNA. How it is done: as §1, §2, §3, §4
A further series has as its system RyR2. The following applies: wildtype mice, 0.5 mg/kg/h for 28 days post-myocardial infarction.
For a further series, the system named is skeletal muscle. The following applies: five weeks after left coronary artery ligation; cited from earlier work.
Setting [1] is: Individual Data (% Inhibition), 10 μM, single cell.
Setting [2] is: hERG current inhibition at the highest concentration tested, highest concentration tested (10 μM).
Setting [3] is: Individual Data (% Inhibition), single cell.

Sequence of hERG (Q12809 whole entry): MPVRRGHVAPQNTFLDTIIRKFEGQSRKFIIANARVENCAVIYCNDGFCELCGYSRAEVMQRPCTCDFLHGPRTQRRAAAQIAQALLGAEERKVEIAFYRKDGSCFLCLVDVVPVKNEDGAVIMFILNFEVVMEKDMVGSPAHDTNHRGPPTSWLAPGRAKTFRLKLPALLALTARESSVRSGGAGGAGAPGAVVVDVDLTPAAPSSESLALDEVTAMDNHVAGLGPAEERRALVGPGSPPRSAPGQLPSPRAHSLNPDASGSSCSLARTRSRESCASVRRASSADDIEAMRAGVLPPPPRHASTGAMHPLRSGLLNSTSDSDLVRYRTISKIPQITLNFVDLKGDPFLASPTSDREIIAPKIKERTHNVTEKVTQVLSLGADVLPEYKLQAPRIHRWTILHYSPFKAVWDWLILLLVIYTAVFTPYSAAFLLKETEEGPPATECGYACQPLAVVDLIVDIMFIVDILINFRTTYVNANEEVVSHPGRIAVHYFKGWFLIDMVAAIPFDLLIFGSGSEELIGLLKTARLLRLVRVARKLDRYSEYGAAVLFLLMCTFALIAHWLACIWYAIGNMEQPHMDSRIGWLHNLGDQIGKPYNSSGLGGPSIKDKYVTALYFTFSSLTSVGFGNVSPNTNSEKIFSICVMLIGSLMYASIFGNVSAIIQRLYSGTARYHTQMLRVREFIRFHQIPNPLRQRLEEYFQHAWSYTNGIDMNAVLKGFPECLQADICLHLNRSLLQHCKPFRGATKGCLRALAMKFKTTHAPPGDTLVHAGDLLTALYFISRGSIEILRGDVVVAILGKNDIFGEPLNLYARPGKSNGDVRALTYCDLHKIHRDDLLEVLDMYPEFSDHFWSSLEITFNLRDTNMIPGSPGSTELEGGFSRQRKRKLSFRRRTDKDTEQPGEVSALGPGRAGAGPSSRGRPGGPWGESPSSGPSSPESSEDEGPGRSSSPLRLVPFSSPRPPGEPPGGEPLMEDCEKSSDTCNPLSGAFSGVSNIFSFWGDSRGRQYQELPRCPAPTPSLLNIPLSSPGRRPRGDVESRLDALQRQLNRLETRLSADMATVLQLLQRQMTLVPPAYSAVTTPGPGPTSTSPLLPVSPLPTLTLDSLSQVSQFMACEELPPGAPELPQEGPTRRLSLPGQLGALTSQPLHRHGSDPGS
Sequence of hERG current (Q12809 whole entry): as above

Compound `COC(=O)C(=O)N1CCSc2ccccc2C1` [S76] had a 50% effective concentration (EC50) at PKA-phosphorylated RyR2 of 25 nM. Besides, the “Individual Data (% Inhibition)” value at hERG current (0.01 μM, listed as ARM076, 0.01 µM) was 0.0% and 0.7%; on hERG current (0.1 μM, listed as ARM076, 0.1 µM), 4.0% and 0.9%; at hERG current (1 μM, listed as ARM076, 1 µM), 2.0% and 4.1%; on hERG current (10 μM, listed as ARM076, 10 µM), 12.3%. Also, the inhibition at 5 min, 10 µM at hERG (setting [1]) was 10%; at hERG (Mean % hERG Inhibition, 10 μM), 11.2%; against hERG (setting [2]), below 50%. On hERG (Mean % hERG Inhibition), the inhibition at 5 min, 0.01 µM is 0.4%. Moreover, the inhibition at 5 min, 0.1 µM on hERG (Mean % hERG Inhibition) came out at 2.5%. The inhibition at 5 min, 1 µM against hERG (Mean % hERG Inhibition) turned out to be 3.1%.

The compound `CCN(CC)C(=O)N1CCSc2ccccc2C1` [S75] registered an EC50 at PKA-phosphorylated RyR2 of 150 nM. Also, the “Individual Data (% Inhibition)” value came to 1.1% on hERG current (0.01 μM, listed as ARM075, 0.01 µM); 4.8% on hERG current (0.1 μM, listed as ARM075, 0.1 µM); 4.1% at hERG current (1 μM, listed as ARM075, 1 µM); 17.2% at hERG current (10 μM, listed as ARM075, 10 µM). Also, the inhibition at 5 min, 0.01 µM against hERG (setting [3]) was found to be 1.7%; against hERG (Mean % hERG Inhibition), 1.4%. In addition, the inhibition at 5 min, 0.1 µM against hERG (setting [3]) is 2.6%; on hERG (Mean % hERG Inhibition), 3.7%. Further, the inhibition at 5 min, 1 µM against hERG (setting [3]) turned out to be 3.7%; at hERG (Mean % hERG Inhibition), 3.9%. For the same compound, the inhibition at 5 min, 10 µM against hERG (setting [1]) is 14.7%; against hERG (Mean % hERG Inhibition, 10 μM), 16%; on hERG (setting [2]), below 50%.

`COc1ccc2c(c1)CN(C(=O)CCN1CCC(Cc3ccccc3)CC1)CCS2.Cl` [JTV-519, 4-[3-(4-benzylpiperidin-1-yl)propionyl]-7-methoxy-2,3,4,5-tetrahydro-1,4-benzothiazepine monohydrochloride]: the “resting heart rate or other ECG parameters” value in the series with FKBP12.6+/− mice (0.5 mg/kg/h for 7 days, osmotic mini-pump) is reported as “no effect”. In addition, the “cardiac arrhythmias and sudden cardiac death” value in the series with FKBP12.6+/− mice (plasma level 1 μM) was “prevent”. In the series on RyR2, the “PKA phosphorylation of RyR2 at Ser-2808” value is reported as “reduces”. In addition, the skeletal muscle function entry in the series on skeletal muscle is listed as “able to improve skeletal muscle function”.
